From EP4782453A1 (Beyang Therapeutics Co., Ltd., priority 2023, dated 2025)
Where two headings read alike, the source gives them in different places.

Tests used:
[1] = target: T1, Menin-MLL (Homo sapiens, UniProt O00255); experiment: Inhibitory activity against Menin-MLL binding (fluorescence polarization); conditions: 150 nM His-Menin, 15 nM FITC-MLL, 25°C for 60 min
T1 construct: His-Menin (M1-L615 end); purchased BIORTUS BP9210
T1 sequence (O00255 1-615 isoform O00255-1): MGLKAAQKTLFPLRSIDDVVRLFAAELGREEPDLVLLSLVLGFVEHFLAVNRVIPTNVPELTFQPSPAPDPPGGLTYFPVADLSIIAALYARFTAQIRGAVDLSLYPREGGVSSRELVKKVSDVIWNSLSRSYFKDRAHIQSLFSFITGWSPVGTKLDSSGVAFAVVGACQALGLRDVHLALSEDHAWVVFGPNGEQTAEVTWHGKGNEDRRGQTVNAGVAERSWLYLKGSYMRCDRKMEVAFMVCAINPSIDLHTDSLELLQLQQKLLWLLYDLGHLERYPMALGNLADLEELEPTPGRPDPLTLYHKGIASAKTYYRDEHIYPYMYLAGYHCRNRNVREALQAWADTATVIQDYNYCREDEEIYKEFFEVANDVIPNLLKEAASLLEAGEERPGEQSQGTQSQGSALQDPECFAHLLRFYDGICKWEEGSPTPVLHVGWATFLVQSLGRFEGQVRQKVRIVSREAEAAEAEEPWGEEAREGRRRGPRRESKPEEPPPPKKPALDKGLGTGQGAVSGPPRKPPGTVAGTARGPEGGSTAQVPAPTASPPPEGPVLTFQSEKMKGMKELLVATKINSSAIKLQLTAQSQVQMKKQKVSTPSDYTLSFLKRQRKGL
How it was run: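 Fluorescence polarization competition: compound and 150 nM His-tagged menin (residues M1-L615) sit 15 min at 25 °C in pH 7.5 HEPES buffer with NaCl, DTT and BSA; 15 nM FITC-labelled MLL peptide then binds for 60 min. IC50 fitted sigmoidally from mP values, duplicate wells.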

[2] = system: MEIS1 gene expression; experiment: Inhibition of MEIS1 gene expression in human tumor cells (qRT-PCR), MV-4-11; format: cell-based; conditions: MV4-11, MV-4-11 (carrying MLL-AF4), 48 hours of incubation, relative MEIS1 gene expression vs GAPDH, read-out: MV-4-11 MEISI EC50
Source text: (§1) Experimental Example 3: Evaluation of Inhibitory Activity of Compounds Against MEISI Gene Expression in Human Tumor Cells
(§2) The effect of test samples on MEIS1 gene expression in vitro cultured human leukemia cells MV-4-11 (carrying MLL-AF4), MOLM-13 (carrying MLL-AF9), and OCI-AML3 (carrying NPM1c) was studied.
(§3) • Human acute lymphoblastic leukemia cells MV-4-11, purchased from American Type Culture Collection, Catalog Number: CRL-9591; • Human acute myeloid leukemia cells MOLM-13, purchased from COBIOER BIOSCIENCES CO., LTD, Catalog Number: CBP60678; • Human acute myeloid leukemia cells OCI-AML3, purchased from COBIOER BIOSCIENCES CO., LTD, Catalog Number: CBP60817; • MEIS1 Primer/Probe, purchased from IDT, Catalog Number: 40831613; and • GAPDH Primer/Probe, purchased from IDT, Catalog Number: 22214836.
(§4) MV-4-11 cells were cultured in an IMDM medium containing 10% fetal bovine serum, or MOLM-13 and OCI-AML3 cells were cultured in an RPMI-1640 medium containing 20% fetal bovine serum, each supplemented with 100 U·mL^-1 penicillin and 100 µg·mL^-1 streptomycin. These cells were cultured at 37°C with 5% CO2. The suspensions of individual cell lines were prepared in their respective media and seeded into 48-well plates at a density of 100,000 cells/well. On the day of the experiment, a compound stock solution was diluted in a 6-fold gradient using DMSO. Each gradient-diluted stock solution was then further diluted 250-fold with a complete medium to prepare a series of working solutions at different concentrations. Next, 250 µL of working solution (containing the complete medium with a 2-fold serial concentration of the test compound or a positive control compound, or containing a control complete medium) was added to each well. After 48 hours of incubation, cells from the 48-well plate were collected into 1 mL centrifuge tubes, centrifuged at 1000 rpm for 5 minutes, and the complete medium was removed. Cells were washed twice with 1 mL PBS and centrifuged to remove PBS. Total RNA was extracted using the RNeasy Mini Kit (250) (QIAGEN, 74106). The threshold cycle (Ct) value for gene expression was determined using the HiScript II U+ One Step qRT-PCR Probe Kit (Vazyme) (Vazyme, Q223-01), with 3 replicates per sample. The prepared reaction mixture was placed in an ABI 7500 real-time PCR instrument, and the reaction proceeded following the procedures below. [formula]
(§5) Next, for the relative MEIS1 gene expression, the concentration (EC50) that inhibits 50% of relative MEIS1 gene expression was calculated using GraphPad Prism 8 software.

[3] = system: MV-4-11 (carrying MLL-AF4); experiment: Inhibition of proliferation of human tumor cells (Alamar Blue, 7 days), MV-4-11; format: cell-based; conditions: Homo sapiens, MV4-11, 168 h, MV-4-11 cells (carrying MLL-AF4), method calls the value GI50
How it was run: (§6)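 Alamar Blue fluorescence at Day 7, normalised between 0.1% DMSO wells on Day 7 (high) and Day 0 (low), gives GI50. Cells grew with compound at 37°C, 5% CO2; seeding 4,000 cells/well for MV-4-11 and MOLM-13, 3,000 for KG-1a.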

[4] = system: MOLM-13 (carrying MLL-AF9); experiment: Inhibition of proliferation of human tumor cells (Alamar Blue, 7 days), MOLM-13; format: cell-based; conditions: Homo sapiens, MOLM-13 cells (carrying MLL-AF9), method calls the value GI50
How it was run: as §6

[5] = system: KG-1a (wild-type MLL); experiment: Inhibition of proliferation of human tumor cells (Alamar Blue, 7 days), KG-1a control cell line; format: cell-based; conditions: 168 h, KG-1a cells (wild-type MLL, control cell line), method calls the value GI50
Source text: Experimental Example 2: Evaluation of Inhibitory Activity of Compounds Against Proliferation of Human Tumor Cells
• Human acute lymphoblastic leukemia cells MV-4-11, purchased from American Type Culture Collection, Catalog Number: CRL-9591; • Human acute myeloid leukemia cells MOLM-13, purchased from COBIOER BIOSCIENCES CO., LTD, Catalog Number: CBP60678; • Human acute myeloid leukemia cells KG-1a, purchased from American Type Culture Collection, Catalog Number: CCL-246.1; • Inverted Microscope, purchased from Olympus Tokyo; • Countess™ Automated Cell Counter, purchased from Invitrogen, Model: C10281; and • Multilabel Reader, purchased from Bio-Tek, Model: Synergy HT.
MV-4-11 cells were cultured in an IMDM medium containing 10% fetal bovine serum, KG-a cells were cultured in an IMDM medium containing 20% fetal bovine serum, or MOLM-13 cells were cultured in an RPMI-1640 medium containing 20% fetal bovine serum, each supplemented with 100 U·mL^-1 penicillin and 100 µg·mL^-1 streptomycin. These cells were cultured at 37°C with 5% CO2. The suspensions of individual cell lines were prepared in their respective media and seeded into 96-well plates at a density of 4,000 cells/well for MV-4-11 and MOLM-13 cells, or 3,000 cells/well for KG-1a cells. On the day of the experiment, a compound stock solution was diluted in a 3-fold or 4-fold gradient using DMSO. Each gradient-diluted stock solution was then further diluted 250-fold with a complete medium to prepare a series of working solutions at different concentrations. Subsequently, 100 µL of working solution (containing a 2-fold concentration series of the test compound) was added to each well, with duplicate wells set up for each concentration.
Seven days after compound addition (on Day 7), an Alamar Blue assay reagent (MCE, HY-111391 / CS-0040317) was added to measure the fluorescence intensity in each well. Wells containing the cells in the growth medium supplemented with 0.1% DMSO (Day 7) served as high-read control wells. The readouts from the wells containing the cells in the growth medium supplemented with 0.1% DMSO on the day of compound addition (Day 0) served as low-reading control well. GraphPad Prism software was used to calculate the concentration required to inhibit 50% of cell proliferation (GI50), which serves as a cell proliferation inhibition activity index.

[6] = system: MEIS1 gene expression; experiment: Inhibition of MEIS1 gene expression in human tumor cells (qRT-PCR), MOLM-13; format: cell-based; conditions: MOLM-13 (carrying MLL-AF9), 48 hours of incubation, relative MEIS1 gene expression vs GAPDH
Source text: as §1, §2, §3, §4, §5

[7] = Menin-MLL IC50, fluorescence polarization
[8] = fluorescence polarization, read-out: Menin-MLL IC50

SMILES	IC50 [1, 7] [µM]	EC50 [2] [µM]	IC50 [3] [µM]	IC50 [1, 8] [µM]	IC50 ([4]; 168 h) [µM]	IC50 ([4]; MOLM-13, 168 h) [µM]	IC50 [5] [µM]	EC50 [6] [µM]
CCN(C(=O)c1cc(F)ccc1-c1cc(C2CCN(C[C@H]3CC[C@H](NS(=O)(=O)CC)CC3)C2)cn2c(C)ncc12)C(C)C (mixture of isomers) [Example 30, N-ethyl-5-fluoro-2-[3-methyl-6-(1-{[(1r,4r)-4-ethanesulfonamidocyclohexyl]methyl}pyrrolidin-3-yl)imidazo[1,5-a]pyridin-8-yl]-N-(isopropyl)benzamide]	0.006	0.02	–	–	–	–	–	–
Cc1nc(F)c2c(-c3ccc(F)cc3C(=O)N3CCC[C@H]3C)cc(C3CN(C(C)C4CCOCC4)C3)cn12 (some centres unmarked) [Example 188]	–	0.042	0.0091	0.012	0.027	–	–	–
CC(=O)N1CCC(CN2CC(c3cc(-c4ccc(F)cc4C(=O)N4CCC[C@H]4C)c4c(F)nc(C)n4c3)C2)CC1 [Example 189]	–	0.089	0.029	0.033	0.044	–	–	–
Cc1cncc2c(-c3ccc(F)cc3C(=O)N3CCOC[C@H]3C)cc(CC3CN(CC4CCOCC4)C3)n12 [Example 260]	–	0.0076	0.0071	0.003	–	0.01	–	–
CCN(C(=O)c1cc(F)ccc1-c1cc(C2CN(CC3CCN(C(C)=O)CC3)C2)cn2c(C)ncc12)C(C)C [Example 289, 2-(6-{1-[(1-acetylpiperidin-4-yl)methyl]azacyclobutan-3-yl}-3-methylimidazo[1,5-a]pyridin-8-yl)-N-ethyl-5-fluoro-N-(isopropyl)benzamide]	–	–	0.011	0.01	0.045	–	20	–
Cc1nc(F)c2c(-c3ccc(F)cc3C(=O)N3CCOC[C@H]3C)cc(C3CN([C@@H](CO[C@H]4CCCN(C)C4)C(C)C)C3)cn12 [Example 321-1, (3R)-4-[5-fluoro-2-(1-fluoro-3-methyl-6-{1-[(2R)-3-methyl-1-{[(3S)-1-methylpiperidin-3-yl]oxy}butan-2-yl]azacyclobutan-3-yl}imidazo[1,5-a]pyridin-8yl)benzoyl]-3-methylmorpholine]	–	0.053	0.0064	0.0107	0.046	–	–	–
Cc1ncc2c(-c3ccc(F)cc3C(=O)N3CCOC[C@H]3C)cc(C3CN([C@H](CCCN4CCN(C5CC5)CC4)C(C)C)C3)cn12 [Example 325]	0.0032	0.0076	–	–	–	–	–	0.0042
CCN(C(=O)c1cc(F)ccc1-c1cc(C2CN([C@H](CCCN3CCC[C@@H](O)C3)C(C)C)C2)cn2c(C)ncc12)C(C)C [Example 326]	–	0.0046	–	0.002	–	–	–	0.0055
CC(=O)N1CCN(CCC[C@H](C(C)C)N2CC(c3cc(-c4ccc(F)cc4C(=O)N4CCOC[C@H]4C)c4c(F)nc(C)n4c3)C2)[C@@H](C)C1 [Example 329]	–	0.063	–	0.011	–	–	–	0.0179
CC(=O)N1CCN(CCC[C@H](C(C)C)N2CC(c3cc(-c4ccc(F)cc4C(=O)N4CCOC[C@H]4C)c4c(F)nc(C)n4c3)C2)C[C@@H]1C [Example 331]	–	0.063	–	0.014	–	–	–	0.0203
CC(=O)N1CCN(CCC[C@H](C(C)C)N2CC(c3cc(-c4ccc(F)cc4C(=O)N4CCOC[C@H]4C)c4c(F)nc(C)n4c3)C2)C(C)(C)C1 [Example 336]	–	0.019	–	0.009	–	–	–	0.0093
Cc1nc(F)c2c(-c3ccc(F)cc3C(=O)N3CCOC[C@H]3C)cc(C3CN([C@H](CCCN4CCN(C(=O)C(C)C)CC4)C(C)C)C3)cn12 [Example 338]	–	0.027	–	0.009	–	–	–	0.0018
Cc1nc(F)c2c(-c3ccc(F)cc3C(=O)N3CCOC[C@H]3C)cc(C3CN([C@H](CCCN4CCN(C(=O)C5CC5)CC4)C(C)C)C3)cn12 [Example 341]	–	0.026	–	0.01	–	–	–	0.006
CC(=O)N1CC2CC(C1)N2CCC[C@H](C(C)C)N1CC(c2cc(-c3ccc(F)cc3C(=O)N3CCOC[C@H]3C)c3c(F)nc(C)n3c2)C1 [Example 346]	–	0.01	–	0.0038	0.0083	–	–	0.005
